From paper PMC11285948, “The effects of CYP2B6 inactivators on the metabolism of ciprofol” (PLOS ONE, 2024)
“And” between values parts separate entries of the source, which are not always exact repeats. Equal values may be shown once. Read-outs that look alike come from different tables or passages of the source.

How the values were obtained:
[1] = Pharmacokinetics of ciprofol in rats pretreated with psoralen, clopidogrel or CMC; assay type: in vivo, rat; conditions: ciprofol 2.4 mg·kg^-1 i.v.; for concentration at 20 min: T 20.00 min; for concentration at 30 min: T 30.00 min; for concentration at 45 min: T 45.00 min; for concentration at 2 min: T 2.00 min; for concentration at 8 min: T 8.00 min; for concentration at 12 min: T 12.00 min; for concentration at 16 min: T 16.00 min
Protocol: 5 μL of IS solution (2.5 μg·mL^-1 D6-ciprofol) was added to 100 μL of plasma and mixed. Then, 300 μL of acetonitrile was added. The mixture was vortexed for 2 min and centrifuged for 10 min, and the supernatant was transferred to an autosampler vial for HPLC-MS/MS detection.
Twenty-four SD rats were randomly and equally divided into three groups: the control group, psoralen group and clopidogrel group. The administration scheme was as follows: the control group received 0.5% carboxy methyl cellulose by gavage (1 mL·200 g^-1), the psoralen group received 27 mg·kg^-1 psoralen by gavage, and the clopidogrel group was gavaged with 7.5 mg·kg^-1 clopidogrel. […] All rats were treated once daily for seven days. Each rat was injected with 2.4 mg·kg^-1 ciprofol via the tail vein 12 h after the end of dosing on Day 7. Rats that received ciprofol injection were placed on a flat and soft insulation pad. Timekeeping began when the rats were in the supine position and lost the righting reflex and ended when the rats could turn to the prone position successfully. The duration of loss of righting reflex (LORR) in each rat was measured. During this period, approximately 300 μL of blood was collected from the inner canthus at 2, 4, 8, 12, 16, 20, 30, 45, and 60 min after ciprofol administration, and the plasma was separated. The plasma was processed and measured as described in Section 2.4.3, and DAS 2.0 software and a noncompartmental model were used to analyse the pharmacokinetic parameters.
IBM SPSS Statistics 27 software was used to analyse the main pharmacokinetic parameters, and GraphPad Prism 8.0.2 software was used for graphical visualization. One-way ANOVA was used, and multiple comparisons were performed using the least significant difference (LSD)-T test, for which P < 0.05 indicated a significant difference.

[2] = Stability of ciprofol QC samples in liver microsome incubation system; assay type: physicochemical; conditions: liver microsomes; for ciprofol found after storage, Autosampler / ciprofol found after storage, Room Temperature: n = 5; for Stability: calculated concentration: single replicates
Protocol: The incubation system was removed from the water bath, and the reaction was terminated immediately by adding 800 μL of reaction termination solution (acetonitrile solution containing 5 μg·mL^-1 D6-ciprofol at 4°C). The mixture was vortexed for 2 min and centrifuged for 15 min, after which the supernatant was transferred to an autosampler vial for HPLC-MS/MS detection.
To investigate the stability of ciprofol under a variety of conditions, three groups of liver microsome QC sample solutions were prepared, and one group was immediately processed and analysed as described in Section 2.4.2. Another group was stored at room temperature for 8 hours before treatment and assessment. The other group was treated and placed in the autosampler (4°C) for 24 h and subsequently analysed. In addition, simulated plasma QC samples were prepared in five groups: one group was processed and measured immediately as described in Section 2.4.3, and another group was placed in the autosampler for 24 h after treatment. The other three groups were placed at room temperature for 8 h, stored at -40°C for 30 d, frozen and thawed three times, respectively, and then processed and detected as described in Section 2.4.3. All the above samples were tested in parallel in five batches.

[3] = SD, rat, plasma, intravenous, 2.4 mg/kg, rats, Clopidogrel group (7.5 mg·kg^-1 gavage daily 7 d), n = 8
[4] = SD, rat, plasma, intravenous, 2.4 mg/kg, rats, Control group (0.5% CMC gavage 7 d), n = 8
[5] = SD, rat, plasma, intravenous, 2.4 mg/kg, rats, Psoralen group (27 mg·kg^-1 gavage daily 7 d), n = 8
[6] = SD, rat, plasma, iv, 2.4 mg/kg, Control (CMC-Na), rats No.1-8 and Mean
[7] = SD, rat, plasma, iv, 2.4 mg·kg^-1, Control (CMC-Na), rats No.1-8 and Mean
[8] = SD, rat, plasma, iv, 6.75 mg/kg, Clopidogrel(6.75mg/kg)group, rats No.1-8 and Mean
[9] = SD, rat, plasma, iv, 27 mg/kg, Psoralen(27mg/kg)group, rats No.1-8 and Mean
[10] = Autosampler for 24 h, QC level H
[11] = Autosampler for 24 h, QC level L
[12] = Autosampler for 24 h, QC level M
[13] = Room - Temperature for 8 h, QC level H
[14] = Room - Temperature for 8 h, QC level L
[15] = Room - Temperature for 8 h, QC level M

CC(C)c1cccc([C@H](C)C2CC2)c1O [ciprofol]
Tmax ([1]; Control (CMC-Na), rats No.1-8 and Mean): 2.00 min
Tmax ([1]; Psoralen(27mg/kg)group, rats No.1-8 and Mean): 2.00 min
CLz ([1]; Psoralen(27mg/kg)group, rats No.1-8 and Mean, 27 mg/kg): 0.14 L/min/kg and 0.12 L/min/kg and 0.13 L/min/kg
clearance ([1]; SD, rat, plasma, Psoralen(27mg/kg)group, rats No.1-8 and Mean, read-out: CLz): 130 mL/min/kg
AUC(0-inf) [1, 3]: 318 ± 45 ng·h/mL
AUC(0-t) [1, 3]: 296 ± 40.8 ng·h/mL
Cmax [1, 3]: 1490 ± 292 ng/mL
clearance ([1]; SD, rat, plasma, intravenous, 2.4 mg/kg, rats, Clopidogrel group (7.5 mg·kg^-1 gavage daily 7 d), n = 8, read-out: CL (converted)): 128 mL/min/kg
MRT last ([1]; SD, rat, plasma, intravenous, 2.4 mg/kg, rats, Clopidogrel group (7.5 mg·kg^-1 gavage daily 7 d), n = 8, read-out: MRT0-t): 12.6 ± 1.2 min
MRT inf ([1]; SD, rat, plasma, intravenous, 2.4 mg/kg, rats, Clopidogrel group (7.5 mg·kg^-1 gavage daily 7 d), n = 8, read-out: MRT0-∞): 18.6 ± 6.6 min
Vd ([1]; SD, rat, plasma, intravenous, 2.4 mg/kg, rats, Clopidogrel group (7.5 mg·kg^-1 gavage daily 7 d), n = 8, read-out: Vd): 3.71 ± 2.03 L/kg
half-life ([1]; SD, rat, plasma, intravenous, 2.4 mg/kg, rats, Clopidogrel group (7.5 mg·kg^-1 gavage daily 7 d), n = 8, read-out: t1/2 (converted)): 21 ± 13.8 min
AUC(0-inf) [1, 4]: 268 ± 35.5 ng·h/mL
AUC(0-t) [1, 4]: 260 ± 35.1 ng·h/mL
Cmax [1, 4]: 1550 ± 173 ng/mL
clearance ([1]; SD, rat, plasma, intravenous, 2.4 mg/kg, rats, Control group (0.5% CMC gavage 7 d), n = 8, read-out: CL (converted)): 152 mL/min/kg
MRT last ([1]; SD, rat, plasma, intravenous, 2.4 mg/kg, rats, Control group (0.5% CMC gavage 7 d), n = 8, read-out: MRT0-t): 10.8 ± 0.6 min
MRT inf ([1]; SD, rat, plasma, intravenous, 2.4 mg/kg, rats, Control group (0.5% CMC gavage 7 d), n = 8, read-out: MRT0-∞): 13.2 ± 2.4 min
Vd ([1]; SD, rat, plasma, intravenous, 2.4 mg/kg, rats, Control group (0.5% CMC gavage 7 d), n = 8, read-out: Vd): 3.02 ± 0.72 L/kg
half-life ([1]; SD, rat, plasma, intravenous, 2.4 mg/kg, rats, Control group (0.5% CMC gavage 7 d), n = 8, read-out: t1/2 (converted)): 13.8 ± 3 min
AUC(0-inf) [1, 5]: 315 ± 23.4 ng·h/mL
AUC(0-t) [1, 5]: 299 ± 17.6 ng·h/mL
Cmax [1, 5]: 1490 ± 200 ng/mL
clearance ([1]; SD, rat, plasma, intravenous, 2.4 mg/kg, rats, Psoralen group (27 mg·kg^-1 gavage daily 7 d), n = 8, read-out: CL (converted)): 128 mL/min/kg
MRT last ([1]; SD, rat, plasma, intravenous, 2.4 mg/kg, rats, Psoralen group (27 mg·kg^-1 gavage daily 7 d), n = 8, read-out: MRT0-t): 13.8 ± 1.2 min
MRT inf ([1]; SD, rat, plasma, intravenous, 2.4 mg/kg, rats, Psoralen group (27 mg·kg^-1 gavage daily 7 d), n = 8, read-out: MRT0-∞): 16.8 ± 3 min
Vd ([1]; SD, rat, plasma, intravenous, 2.4 mg/kg, rats, Psoralen group (27 mg·kg^-1 gavage daily 7 d), n = 8, read-out: Vd): 2.8 ± 0.46 L/kg
half-life ([1]; SD, rat, plasma, intravenous, 2.4 mg/kg, rats, Psoralen group (27 mg·kg^-1 gavage daily 7 d), n = 8, read-out: t1/2 (converted)): 15.6 ± 3 min
concentration at 20 min [1, 6]: 159 ng/mL
concentration at 30 min [1, 6]: 93.3 ng/mL
concentration at 45 min [1, 6]: 67.3 ng/mL
Cmax [1, 6]: 1550 ng/mL
clearance ([1]; SD, rat, plasma, iv, 2.4 mg/kg, Control (CMC-Na), rats No.1-8 and Mean, read-out: CLz): 150 mL/min/kg
MRT last ([1]; SD, rat, plasma, iv, 2.4 mg/kg, Control (CMC-Na), rats No.1-8 and Mean, read-out: MRT(0-t) (converted)): 10.8 min
MRT inf ([1]; SD, rat, plasma, iv, 2.4 mg/kg, Control (CMC-Na), rats No.1-8 and Mean, read-out: MRT(0-∞) (converted)): 12.9 min
Vd ([1]; SD, rat, plasma, iv, 2.4 mg/kg, Control (CMC-Na), rats No.1-8 and Mean, read-out: Vz): 3.02 L/kg
half-life ([1]; SD, rat, plasma, iv, 2.4 mg/kg, Control (CMC-Na), rats No.1-8 and Mean, read-out: t1/2z): 13.8 min
concentration at 2 min [1, 7]: 1500 ng/mL
concentration at 8 min [1, 7]: 419 ng/mL
concentration at 12 min [1, 7]: 312 ng/mL
concentration at 16 min [1, 7]: 224 ng/mL
concentration at 2 min [1, 8]: 1050 ng/mL
concentration at 8 min [1, 8]: 406 ng/mL
concentration at 12 min [1, 8]: 334 ng/mL
concentration at 16 min [1, 8]: 266 ng/mL
concentration at 20 min [1, 8]: 193 ng/mL
concentration at 45 min [1, 8]: 65.7 ng/mL
concentration at 60 min ([1]; SD, rat, plasma, iv, 6.75 mg/kg, Clopidogrel(6.75mg/kg)group, T 60.00 min, rats No.1-8 and Mean): 43.3 ng/mL
Cmax [1, 8]: 1490 ng/mL
clearance ([1]; SD, rat, plasma, iv, 6.75 mg/kg, Clopidogrel(6.75mg/kg)group, rats No.1-8 and Mean, read-out: CLz): 130 mL/min/kg
MRT last ([1]; SD, rat, plasma, iv, 6.75 mg/kg, Clopidogrel(6.75mg/kg)group, rats No.1-8 and Mean, read-out: MRT(0-t) (converted)): 12.6 min
concentration at 2 min [1, 9]: 1560 ng/mL
concentration at 4 min ([1]; SD, rat, plasma, iv, 27 mg/kg, Psoralen(27mg/kg)group, T 4.00 min, rats No.1-8 and Mean): 895 ng/mL
concentration at 8 min [1, 9]: 532 ng/mL
concentration at 12 min [1, 9]: 374 ng/mL
concentration at 16 min [1, 9]: 348 ng/mL
concentration at 20 min [1, 9]: 203 ng/mL
concentration at 30 min [1, 9]: 145 ng/mL
Cmax [1, 9]: 1490 ng/mL
MRT last ([1]; SD, rat, plasma, iv, 27 mg/kg, Psoralen(27mg/kg)group, rats No.1-8 and Mean, read-out: MRT(0-t) (converted)): 13.6 min
MRT inf ([1]; SD, rat, plasma, iv, 27 mg/kg, Psoralen(27mg/kg)group, rats No.1-8 and Mean, read-out: MRT(0-∞) (converted)): 17 min
Vd ([1]; SD, rat, plasma, iv, 27 mg/kg, Psoralen(27mg/kg)group, rats No.1-8 and Mean, read-out: Vz): 2.8 L/kg
half-life ([1]; SD, rat, plasma, iv, 27 mg/kg, Psoralen(27mg/kg)group, rats No.1-8 and Mean, read-out: t1/2z): 15.4 min
Tmax ([1]; SD, rat, plasma, iv, Clopidogrel(6.75mg/kg)group, rats No.1-8 and Mean, read-out: Tmax (converted)): 2 min
Tmax ([1]; SD, rat, plasma, iv, Control (CMC-Na), rats No.1-8 and Mean, read-out: Tmax (converted)): 2 min
Tmax ([1]; SD, rat, plasma, iv, Psoralen(27mg/kg)group, rats No.1-8 and Mean, read-out: Tmax (converted)): 2 min
ciprofol found after storage, Autosampler ([2]; QC 2.5 μg·mL^-1, autosampler (4°C) for 24 h after treatment): 2.54 ± 0.11 µg/mL
ciprofol found after storage, Room Temperature ([2]; QC 2.5 μg·mL^-1, room temperature for 8 h): 2.53 ± 0.19 µg/mL
ciprofol found after storage, Autosampler ([2]; QC 10 μg·mL^-1, autosampler (4°C) for 24 h after treatment): 9.82 ± 0.44 µg/mL
ciprofol found after storage, Room Temperature ([2]; QC 10 μg·mL^-1, room temperature for 8 h): 10.14 ± 0.62 µg/mL
ciprofol found after storage, Autosampler ([2]; QC 75 μg·mL^-1, autosampler (4°C) for 24 h after treatment): 72.07 ± 4.83 µg/mL
ciprofol found after storage, Room Temperature ([2]; QC 75 μg·mL^-1, room temperature for 8 h): 70.43 ± 3.12 µg/mL
Stability: mean calculated concentration [2, 10]: 72.07 µg/mL
Stability: calculated concentration [2, 10]: 64.85 µg/mL and 72.55 µg/mL and 71.79 µg/mL and 72.70 µg/mL and 78.45 µg/mL
Stability: mean calculated concentration [2, 11]: 2.54 µg/mL
Stability: calculated concentration [2, 11]: 2.73 µg/mL and 2.56 µg/mL and 2.49 µg/mL and 2.50 µg/mL and 2.43 µg/mL
Stability: mean calculated concentration [2, 12]: 9.82 µg/mL
Stability: calculated concentration [2, 12]: 9.08 µg/mL and 9.88 µg/mL and 10.27 µg/mL and 9.89 µg/mL and 9.96 µg/mL
Stability: mean calculated concentration [2, 13]: 70.43 µg/mL
Stability: calculated concentration [2, 13]: 71.38 µg/mL and 72.99 µg/mL and 69.04 µg/mL and 65.67 µg/mL and 73.05 µg/mL
Stability: mean calculated concentration [2, 14]: 2.53 µg/mL
Stability: calculated concentration [2, 14]: 2.63 µg/mL and 2.49 µg/mL and 2.51 µg/mL and 2.26 µg/mL and 2.77 µg/mL
Stability: mean calculated concentration [2, 15]: 10.15 µg/mL
Stability: calculated concentration [2, 15]: 9.80 µg/mL and 9.76 µg/mL and 10.83 µg/mL and 10.81 µg/mL and 9.53 µg/mL
